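Five concentrations, 48 hours, 96-well plates. TGI marks complete inhibition of growth.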
Assays:
Experiment in all cases: DTP human tumour cell line panel, 48 h
KM12 colon = system: KM12 colon
OVCAR-8 ovarian = system: OVCAR-8 ovarian
A498 renal = system: A498 renal
IGROV1 ovarian = system: IGROV1 ovarian
SF-295 CNS = system: SF-295 CNS
HCT-116 colon = system: HCT-116 colon
SR leukemia = system: SR leukemia
UO-31 renal = system: UO-31 renal
SK-MEL-28 melanoma = system: SK-MEL-28 melanoma
HOP-62 NSCLC = system: HOP-62 NSCLC
ACHN renal = system: ACHN renal
OVCAR-3 ovarian = system: OVCAR-3 ovarian
SNB-75 CNS = system: SNB-75 CNS
HL-60(TB) leukemia = system: HL-60(TB) leukemia
MDA-MB-435 = system: MDA-MB-435
DU-145 prostate = system: DU-145 prostate

C[C@]12CCC3c4ccc(OC(=O)c5ccccc5)cc4CC[C@H]3C1CC[C@@H]2OC(=O)C12OC1CCC2=O (stereo partly drawn)
TGI (KM12 colon): 13.6 µM | TGI (OVCAR-8 ovarian): 31.3 µM | TGI (A498 renal): 14.2 µM | TGI (IGROV1 ovarian): 9.22 µM | TGI (SF-295 CNS): 28.7 µM | TGI (HCT-116 colon): 7.18 µM | TGI (SR leukemia): 13.5 µM | TGI (UO-31 renal): 11.9 µM | TGI (SK-MEL-28 melanoma): 10.7 µM | TGI (HOP-62 NSCLC): 11.9 µM | TGI (ACHN renal): 10.4 µM | TGI (OVCAR-3 ovarian): 8.82 µM | TGI (SNB-75 CNS): 19.1 µM | TGI (HL-60(TB) leukemia): 4.56 µM

OCCN1CCN(CCO)Cc2ccccc2OCCOc2ccccc2C1
TGI (KM12 colon): > 100 µM | TGI (OVCAR-8 ovarian): > 100 µM | TGI (A498 renal): > 100 µM | TGI (IGROV1 ovarian): > 100 µM | TGI (HCT-116 colon): > 100 µM | TGI (SR leukemia): > 100 µM | TGI (UO-31 renal): > 100 µM | TGI (SK-MEL-28 melanoma): > 100 µM | TGI (HOP-62 NSCLC): > 100 µM | TGI (ACHN renal): > 100 µM | TGI (OVCAR-3 ovarian): > 100 µM | TGI (SNB-75 CNS): > 100 µM

CC(C)[Si](OC12CCC(CC1O)CC2C(=O)O)(C(C)C)C(C)C (stereo not drawn)
TGI (KM12 colon): 26.2 µM | TGI (OVCAR-8 ovarian): 42.4 µM | TGI (A498 renal): 31 µM | TGI (SF-295 CNS): 29.2 µM | TGI (HCT-116 colon): 23.8 µM | TGI (SR leukemia): > 100 µM | TGI (UO-31 renal): 26 µM | TGI (SK-MEL-28 melanoma): 24.2 µM | TGI (HOP-62 NSCLC): 27.5 µM | TGI (ACHN renal): 29.1 µM | TGI (OVCAR-3 ovarian): 28 µM | TGI (SNB-75 CNS): 28.1 µM | TGI (HL-60(TB) leukemia): 6.87 µM | TGI (MDA-MB-435): 31.8 µM | TGI (DU-145 prostate): 33.7 µM

COC(=O)C1=CC(O)CCC1c1ccc(OC)cc1 (stereo not drawn)
TGI (KM12 colon): > 100 µM | TGI (OVCAR-8 ovarian): > 100 µM | TGI (A498 renal): > 100 µM | TGI (IGROV1 ovarian): > 100 µM | TGI (SF-295 CNS): > 100 µM | TGI (HCT-116 colon): > 100 µM | TGI (SR leukemia): > 100 µM | TGI (UO-31 renal): > 100 µM | TGI (SK-MEL-28 melanoma): > 100 µM | TGI (HOP-62 NSCLC): > 100 µM | TGI (ACHN renal): > 100 µM | TGI (OVCAR-3 ovarian): > 100 µM | TGI (SNB-75 CNS): > 100 µM | TGI (HL-60(TB) leukemia): > 100 µM

CCN1C(C)=NC2C(=O)c3ccccc3C(=O)C21 (stereo not drawn)
TGI (OVCAR-8 ovarian): > 100 µM | TGI (A498 renal): > 100 µM | TGI (IGROV1 ovarian): > 100 µM | TGI (SF-295 CNS): > 100 µM | TGI (HCT-116 colon): > 100 µM | TGI (SR leukemia): > 100 µM | TGI (UO-31 renal): > 100 µM | TGI (SK-MEL-28 melanoma): > 100 µM | TGI (HOP-62 NSCLC): > 100 µM | TGI (ACHN renal): > 100 µM | TGI (OVCAR-3 ovarian): > 100 µM | TGI (SNB-75 CNS): > 100 µM | TGI (HL-60(TB) leukemia): > 100 µM

COc1ccc2[nH]c3c4c(c5cc(C(C)(C)C)ccc5c3c2c1)C(=O)N(c1ccccc1)C4=O
TGI (KM12 colon): > 100 µM | TGI (OVCAR-8 ovarian): > 100 µM | TGI (A498 renal): 61.6 µM | TGI (IGROV1 ovarian): > 100 µM | TGI (SF-295 CNS): > 100 µM | TGI (HCT-116 colon): > 100 µM | TGI (UO-31 renal): > 100 µM | TGI (SK-MEL-28 melanoma): > 100 µM | TGI (HOP-62 NSCLC): > 100 µM | TGI (OVCAR-3 ovarian): > 100 µM | TGI (SNB-75 CNS): > 100 µM | TGI (HL-60(TB) leukemia): > 100 µM

CC(C#N)c1cn(S(=O)(=O)c2ccccc2)c2ccccc12 (stereo not drawn)
TGI (KM12 colon): > 100 µM | TGI (OVCAR-8 ovarian): > 100 µM | TGI (IGROV1 ovarian): > 100 µM | TGI (SF-295 CNS): > 100 µM | TGI (HCT-116 colon): > 100 µM | TGI (SR leukemia): > 100 µM | TGI (UO-31 renal): 62.4 µM | TGI (SK-MEL-28 melanoma): > 100 µM | TGI (HOP-62 NSCLC): > 100 µM | TGI (ACHN renal): > 100 µM | TGI (OVCAR-3 ovarian): > 100 µM | TGI (SNB-75 CNS): 38.2 µM | TGI (HL-60(TB) leukemia): 88.1 µM

Cc1ccc(S(=O)(=O)Nn2c(-c3ccccc3)c(C#N)c(-c3ccc(Cl)cc3)c(C#N)c2=O)cc1
TGI (A498 renal): 51.1 µM | TGI (SF-295 CNS): > 100 µM | TGI (HCT-116 colon): 37.3 µM | TGI (SK-MEL-28 melanoma): 78.5 µM | TGI (HOP-62 NSCLC): > 100 µM | TGI (ACHN renal): > 100 µM | TGI (HL-60(TB) leukemia): 31.7 µM | TGI (MDA-MB-435): > 100 µM

CN1C(=O)n2c(nc3ccccc32)C(N=[N+]=[N-])(N=[N+]=[N-])C1=O (stereo not drawn)
TGI (KM12 colon): > 100 µM | TGI (OVCAR-8 ovarian): > 100 µM | TGI (A498 renal): > 100 µM | TGI (IGROV1 ovarian): > 100 µM | TGI (SF-295 CNS): > 100 µM | TGI (HCT-116 colon): > 100 µM | TGI (UO-31 renal): > 100 µM | TGI (SK-MEL-28 melanoma): > 100 µM | TGI (HOP-62 NSCLC): > 100 µM | TGI (ACHN renal): > 100 µM | TGI (OVCAR-3 ovarian): > 100 µM | TGI (SNB-75 CNS): > 100 µM | TGI (HL-60(TB) leukemia): > 100 µM

COC(=O)c1cc(Br)c(C(=O)C(Cl)(Cl)Cl)[nH]1
TGI (KM12 colon): > 100 µM | TGI (OVCAR-8 ovarian): > 100 µM | TGI (A498 renal): > 100 µM | TGI (IGROV1 ovarian): > 100 µM | TGI (SF-295 CNS): > 100 µM | TGI (HCT-116 colon): > 100 µM | TGI (UO-31 renal): > 100 µM | TGI (SK-MEL-28 melanoma): > 100 µM | TGI (HOP-62 NSCLC): > 100 µM | TGI (ACHN renal): > 100 µM | TGI (OVCAR-3 ovarian): > 100 µM | TGI (SNB-75 CNS): > 100 µM | TGI (HL-60(TB) leukemia): > 100 µM | TGI (MDA-MB-435): > 100 µM | TGI (DU-145 prostate): > 100 µM

CC(=O)O[C@H]1C(=O)[C@@]2(C)C(C(OC(=O)c3ccccc3)[C@]3(O)CC(OC(=O)C(O)C(NC(=O)c4ccccc4)c4ccc(F)cc4)C(C)=C1C3(C)C)[C@]1(OC(C)=O)CO[C@@H]1C[C@@H]2O (stereo partly drawn)
TGI (KM12 colon): > 5.45 µM | TGI (OVCAR-8 ovarian): > 10 µM | TGI (IGROV1 ovarian): > 10 µM | TGI (SF-295 CNS): 1.42 µM | TGI (HCT-116 colon): 0.103 µM | TGI (SR leukemia): > 3.82 µM | TGI (UO-31 renal): > 10 µM | TGI (HOP-62 NSCLC): > 10 µM | TGI (ACHN renal): > 10 µM | TGI (SNB-75 CNS): > 10 µM | TGI (DU-145 prostate): 0.0104 µM

CS(=O)(=O)c1nc(N)nc2nc[nH]c12
TGI (KM12 colon): > 100 µM | TGI (OVCAR-8 ovarian): > 100 µM | TGI (A498 renal): > 100 µM | TGI (IGROV1 ovarian): > 100 µM | TGI (SF-295 CNS): > 100 µM | TGI (HCT-116 colon): > 100 µM | TGI (SR leukemia): > 100 µM | TGI (UO-31 renal): > 100 µM | TGI (SK-MEL-28 melanoma): > 100 µM | TGI (HOP-62 NSCLC): > 100 µM | TGI (ACHN renal): > 100 µM | TGI (OVCAR-3 ovarian): > 100 µM | TGI (HL-60(TB) leukemia): > 100 µM

CCOC(=O)c1sc2nc(SC)nc(Nc3ccc4c(c3)OCCCO4)c2c1N
TGI (KM12 colon): > 100 µM | TGI (OVCAR-8 ovarian): > 100 µM | TGI (A498 renal): > 100 µM | TGI (IGROV1 ovarian): > 100 µM | TGI (SF-295 CNS): 53.9 µM | TGI (HCT-116 colon): > 100 µM | TGI (SR leukemia): > 100 µM | TGI (UO-31 renal): > 100 µM | TGI (SK-MEL-28 melanoma): > 100 µM | TGI (HOP-62 NSCLC): 61.5 µM | TGI (ACHN renal): > 100 µM | TGI (OVCAR-3 ovarian): 75.9 µM | TGI (HL-60(TB) leukemia): > 100 µM | TGI (MDA-MB-435): > 100 µM | TGI (DU-145 prostate): > 100 µM

From PubChem BioAssay (NCI)
